The experiment deals with T1, human MPO (Homo sapiens, UniProt P05164).
T1 sequence (P05164 49-745): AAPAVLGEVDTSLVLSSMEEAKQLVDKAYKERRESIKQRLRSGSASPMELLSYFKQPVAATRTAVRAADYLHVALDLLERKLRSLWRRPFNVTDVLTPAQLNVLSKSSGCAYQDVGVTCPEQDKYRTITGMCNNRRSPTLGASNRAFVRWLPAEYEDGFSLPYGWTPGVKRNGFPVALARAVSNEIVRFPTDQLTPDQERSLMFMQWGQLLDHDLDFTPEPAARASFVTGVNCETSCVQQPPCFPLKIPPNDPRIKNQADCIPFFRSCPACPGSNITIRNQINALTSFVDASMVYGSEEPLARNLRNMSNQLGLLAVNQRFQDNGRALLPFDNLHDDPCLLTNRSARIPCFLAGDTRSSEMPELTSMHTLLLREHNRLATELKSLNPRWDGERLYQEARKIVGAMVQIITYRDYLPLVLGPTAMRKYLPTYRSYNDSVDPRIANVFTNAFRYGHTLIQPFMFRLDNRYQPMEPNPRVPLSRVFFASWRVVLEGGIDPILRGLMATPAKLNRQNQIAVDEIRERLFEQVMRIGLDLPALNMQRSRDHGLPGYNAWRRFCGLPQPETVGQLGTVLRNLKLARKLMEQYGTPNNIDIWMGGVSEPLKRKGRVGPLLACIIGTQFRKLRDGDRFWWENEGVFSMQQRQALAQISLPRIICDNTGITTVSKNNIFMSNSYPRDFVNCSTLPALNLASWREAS
Briefly: MPO inhibition screen (TMB oxidation, absorbance at about 650 nM). The experiment is classed as biochemical. To be noted: human MPO 2.5 nM, H2O2 100 μM, assay buffer pH 6.5, room temperature. The procedure:
The pharmacological activity of compounds according to the invention was tested in the following screen:
Assay buffer: 20 mM sodium/potassium phosphate buffer pH 6.5 containing 10 mM taurine and 100 mM NaCl.
Then 50 μl of H202 (final concentration 100 μM), or assay buffer alone as a control, were added for 10 minutes at room temperature. […] IC50 values were then determined using standard procedures.

In general, IC50 refers to the point on the concentration scale where inhibition reaches its midpoint. Read a low IC50 as higher potency. Consider `O=c1[nH]c(=S)n(CC2CCCO2)c2nc[nH]c12` (racemic) [Example 14, 3-(2-Tetrahydrofuryl-methyl)-2-thioxanthine], for which the IC50 came to 0.51 µM.

The molecule `CC(C)Cn1c(=S)[nH]c(=O)c2[nH]cnc21` [Example 6, 3-Isobutyl-2-thioxanthine] displayed an IC50 of 0.87 µM.

`O=c1[nH]c(=S)n(CC2CCCCC2)c2nc[nH]c12` [Example 10, 3-Cyclohexylmethyl-2-thioxanthine] showed an IC50 of 0.53 µM.

In turn, `COCCn1c(=S)[nH]c(=O)c2[nH]cnc21` [Example 15, 3-(2-Methoxy-ethyl)-2-thioxanthine] gave an IC50 of 0.44 µM.

On to `O=c1[nH]c(=S)n(CCCN2CCOCC2)c2nc[nH]c12` [Example 16, 3-(3-(1-Morpholinyl)-propyl)-2-thioxanthine], for which the IC50 stood at 2.94 µM.

Turning to `O=c1[nH]c(=S)n(Cc2ccco2)c2nc[nH]c12` [Example 17, 3-(2-Furyl-methyl)-2-thioxanthine], the IC50 was found to be 7.57 µM.

In the case of `COc1ccc(Cn2c(=S)[nH]c(=O)c3[nH]cnc32)cc1` [Example 18, 3-(4-Methoxybenzyl)-2-thioxanthine], the IC50 was 0.49 µM.

In the case of `O=c1[nH]c(=S)n(CCc2ccccc2)c2nc[nH]c12` [Example 20, 3-Phenethyl-2-thioxanthine], inhibition was half-maximal at 0.96 µM (IC50).

The values above are taken from patent publication US8236951B2, “Thioxanthine derivatives as myeloperoxidase inhibitors” (AstraZeneca AB, priority 2002, dated 2012).
